Like-named read-outs stand apart in the source and are kept apart here. Blank lines part the entries; values can stand above or below the sequence they belong to. Ends that are not written are not given here.
Columns and labels:
[1] = biological target: T1, HLA-DRB1*04:01 (Homo sapiens, UniProt P01903+P01911, A100K/A169T/F76Y/I96L/K127E/L162R/M171V/N62H/P40V/Q125Y/R42H/S133A/S149N/S66Y/V115G/V209L/W38E); assay: HLA class II peptide binding, inhibition of radiolabeled peptide binding to purified MHC; details: read-out: DRB1*04:01 binding capacity, WT peptide (IC50 nM)
T1 construct: EBV transformed homozygous cell lines were used as sources of MHC molecules; endogenous in cells; host or cells: EBV transformed homozygous cell lines

[2] = biological target: T2, HLA-DRB1*01:01 (Homo sapiens, UniProt P01903+P01911, A100R/D57E/F55L/F60I/F76Y/I96L/L162R/M171V/P40L/Q125E/R42F/V115G/Y59C); assay: as above; details: read-out: DRB1*01:01 binding capacity, WT peptide (IC50 nM)
T2 construct: EBV transformed homozygous cell lines were used as sources of MHC molecules; endogenous in cells; host or cells: EBV transformed homozygous cell lines

Sequence: VLLTLLVAAVLRCQG [Collagen 11 WT]
IC50 ([1]; wild-type (unmodified Arg) 15-mer peptide, purified HLA-DRB1*04:01): > 40000 nM
IC50 ([2]; wild-type (unmodified Arg) 15-mer peptide, purified HLA-DRB1*01:01): 148 nM

Sequence: VTTSTRTYSLGSALR [Vimentin 31 WT]
IC50 [1]: 1220 nM
IC50 [2]: 5 nM

Sequence: YRRMFGGPGTASRPS [Vimentin 11 WT]
IC50 [1]: 9750 nM
IC50 [2]: 440 nM

Results, then the sequence that gave them:

IC50 [1]: 16400 nM
IC50 [2]: 12500 nM
Sequence: VEVERDNLAEDIMRL [Vimentin 171 WT]

IC50 [1]: 725 nM
IC50 [2]: 25 nM
Sequence: VSSSSYRRMFGGPGT [Vimentin 6 WT]

IC50 [1]: 1600 nM
IC50 [2]: 17 nM
Sequence: YATRSSAVRLRSSVP [Vimentin 61 WT]

IC50 [1]: 953 nM
IC50 [2]: 394 nM
Sequence: YKSKFADLSEAANRN [Vimentin 291 WT]

— paper PMC5421785, “Citrullination only infrequently impacts peptide binding to HLA class II MHC” (PLoS ONE, 2017)
